This note sets out measurements from patent publication US11866438B2, “Compositions, uses and methods for making them” (Pimera, Inc., priority 2015, dated 2024).

Assay type in all cases: cell-based
The subject of one test is KG-1. As to the kind of experiment: Alamar Blue cell proliferation inhibition, KG-1. As to conditions: Homo sapiens, Alamar Blue assay, 96 h incubation, Table 3, read-out: cell proliferation inhibition, Cell line KG-1. The procedure:
(§1) Inhibitory activity on cell proliferation of representative compounds of the invention was determined using an Alamar Blue cell viability assay as described hereafter.
(§2) 3000 cancer cells in 100 uL of cell culture media were plated in each well of a 96-well clear bottom, black wall cell culture-pretreated plate.
(§3) The next day compounds are serially diluted (3-fold in cell culture media) across a 96-well polypropylene mother plate from row A to row F, to yield 6 concentrations (10 uM, 3.3 uM, 1.1 uM, 370 nM, 124 nM and 41 nM) for each test compound. Rows G and H contain only DMSO.
(§4) Once titrations are made, the media in plates with cells were disposed and 100 μL of drug dilutions are transferred to plates with cells. After a ninety six-hour incubation at 37° C., 10 uL of resazurin solution from Alamar Blue Cell Viability kit (Invitrogen, Carlsbad, CA) was added to the media and cells were incubated at 37° C. for three more hours. At the end of this incubation the production of resofurin was measured using Spectrmax M2 microplate reader (Molecular Devices, Sunnyvale, CA)

Another test has as its system THP-1. As to the kind of experiment: Alamar Blue cell proliferation inhibition, THP-1. As to conditions: Homo sapiens, Alamar Blue assay, 96 h incubation, Table 3, read-out: cell proliferation inhibition, Cell line THP-1. The procedure: as §1, §2, §3, §4
Background: Resazurin is reduced to fluorescent resorufin, in cell work by metabolically active cells.

A further test concerns NB-4-1. As to the kind of experiment: Alamar Blue cell proliferation inhibition, NB-4-1. As to conditions: Alamar Blue assay, 96 h incubation, Table 3; read-out: cell proliferation inhibition, Cell line NB-4-1. On the procedure: as §1, §2, §3, §4
A further test relates to P12-ICHIKAWA
As to the kind of experiment: Alamar Blue cell proliferation inhibition, P12-ICHIKAWA
The settings on record: Homo sapiens, Alamar Blue assay, 96 h incubation, Table 3, read-out: cell proliferation inhibition, Cell line P12-ICHIKAWA
The procedure: as §1, §2, §3, §4

In another test the test system is SKM-1_1. As to the kind of experiment: Alamar Blue cell proliferation inhibition, SKM-1_1. The settings on record: Alamar Blue assay, 96 h incubation, Table 3; read-out: cell proliferation inhibition, Cell line SKM-1_1. On the procedure:
as §1, §2, §3, §4

In the next test the test system is ML-2. As to the kind of experiment: Alamar Blue cell proliferation inhibition, ML-2. As to conditions: Homo sapiens, Alamar Blue assay, 96 h incubation, Table 3, read-out: cell proliferation inhibition, Cell line ML-2. On the procedure: as §1, §2, §3, §4
The test system of the next test is SK-BR-3. As to the kind of experiment: Alamar Blue cell proliferation inhibition, SK-BR-3. The settings on record: Homo sapiens, Alamar Blue assay, 96 h incubation. On the procedure:
as §1, §2, §3, §4

The subject of a further test is MBA-MB-231. As to the kind of experiment: Alamar Blue cell proliferation inhibition, MBA-MB-231 (MM231). As to conditions: Alamar Blue assay, 96 h incubation. The procedure:
as §1, §2, §3, §4

Where [1] appears, read: Table 2, read-out: cell proliferation inhibition, Cell Line SK-BR-3.
[2] abbreviates: Table 2, read-out: cell proliferation inhibition, Cell Line MBA-MB-231.
Where [3] appears, read: Table 3, read-out: cell proliferation inhibition, Cell line SK-BR-3.
Where [4] appears, read: Table 3, read-out: cell proliferation inhibition, Cell line MM231.

Where two headings read alike, the source gives them in different places.

In the case of `CN(C)CCNc1nc2cccnc2n2c1nc1ccccc12` [Compound 5], the IC50 with KG-1, with THP-1, in the test with NB-4-1, in the test with P12-ICHIKAWA, in the test with SKM-1_1 and with ML-2 was 1 to 5 µM in each case.
With `Cc1ccc2nc(NCCN3CCCC3)c3nc4ccccc4n3c2n1` [Compound 12], the IC50 in the test with SK-BR-3 (setting [1]) and with MBA-MB-231 (setting [2]) was 1 to 5 µM in each case.
Consider `Cc1ccc2nc(NCCN(C)C)c3nc4ccccc4n3c2n1` [Compound 13], for which the IC50 with SK-BR-3 (setting [1]) and in the test with MBA-MB-231 (setting [2]) was 1 to 5 µM in each case.
As for `Cc1ccc2nc(N3C[C@@H](C)N[C@@H](C)C3)c3nc4ccccc4n3c2n1` [Compound 14], the IC50 in the test with SK-BR-3 (setting [1]) and with MBA-MB-231 (setting [2]) was 1 to 5 µM in each case.
Consider `Cc1ccc2nc(N3CCCN(C)CC3)c3nc4ccccc4n3c2n1` [Compound 15], for which the IC50 in the test on SK-BR-3 (setting [1]) and in the test with MBA-MB-231 (setting [2]) was 1 to 5 µM throughout.
`Clc1cnc2c(c1)nc(NCCN1CCCC1)c1nc3ccccc3n12` [Compound 19]: the IC50 in the test with SK-BR-3 (setting [1]) and in the test on MBA-MB-231 (setting [2]) was 1 to 5 µM each time.
As to `CN(C)CCNc1nc2cc(Cl)cnc2n2c1nc1ccccc12` [Compound 20], the IC50 in the test with SK-BR-3 (setting [1]) and in the test with MBA-MB-231 (setting [2]) was 1 to 5 µM in each case.
As to `C[C@@H]1CN(c2nc3cc(Cl)cnc3n3c2nc2ccccc23)C[C@H](C)N1` [Compound 21], the IC50 with SK-BR-3 (setting [1]) and in the test on MBA-MB-231 (setting [2]) was over 10 µM each time.
For the compound `CN1CCCN(c2nc3cc(Cl)cnc3n3c2nc2ccccc23)CC1` [Compound 22], the IC50 is 1 to 5 µM in the test with SK-BR-3 (setting [1]) and 5 to 10 µM in the test with MBA-MB-231 (setting [2]).
Taken in the same sequence, the figures for `c1ccc2c(c1)nc1c(NCCN3CCCC3)nc3cncnc3n12` [Compound 26] were 1 to 5 µM and 1 to 5 µM.
Take `CN(C)CCNc1nc2cncnc2n2c1nc1ccccc12` [Compound 27]: the IC50 in the test with SK-BR-3 (setting [1]) and in the test with MBA-MB-231 (setting [2]) was 1 to 5 µM each time.
Regarding `C[C@@H]1CN(c2nc3cncnc3n3c2nc2ccccc23)C[C@H](C)N1` [Compound 28], the IC50 in the test on SK-BR-3 (setting [1]) and in the test with MBA-MB-231 (setting [2]) was 1 to 5 µM in each case.
Regarding `CN1CCCN(c2nc3cncnc3n3c2nc2ccccc23)CC1` [Compound 29], the IC50 in the test on SK-BR-3 (setting [1]) and in the test with MBA-MB-231 (setting [2]) was 1 to 5 µM each time.
In the case of `CN(C)CCNc1nc2nccnc2n2c1nc1ccccc12` [Compound 34], the IC50 in the test with SK-BR-3 (setting [1]) and in the test on MBA-MB-231 (setting [2]) was 1 to 5 µM throughout.
`C[C@@H]1CN(c2nc3nccnc3n3c2nc2ccccc23)C[C@H](C)N1` [Compound 35]: the IC50 in the test with SK-BR-3 (setting [1]) and in the test on MBA-MB-231 (setting [2]) was 1 to 5 µM throughout.
On to `CN1CCCN(c2nc3nccnc3n3c2nc2ccccc23)CC1` [Compound 36], for which the IC50 in the test with SK-BR-3 (setting [1]) and in the test on MBA-MB-231 (setting [2]) was 1 to 5 µM in each case.
On to `O=c1[nH]c2ccc(NCCN3CCCC3)nc2n2c1nc1ccccc12` [Compound 39], for which the IC50 in the test with SK-BR-3 (setting [3]) and in the test on MBA-MB-231 (setting [4]) was 1 to 5 µM throughout.
`CN1CCCN(c2ccc3[nH]c(=O)c4nc5ccccc5n4c3n2)CC1` [Compound 41, 2-(4-Methyl-[1,4]diazepan-1-yl)-5H-1,5,7,11b-tetraaza-benzo[c]fluoren-6-one]: the IC50 with SK-BR-3 (setting [3]) is under 1 µM.
As to `CN(C)CCNC(=O)c1cc2cc3ccccc3nc2n2ccnc12` [Compound 52], the IC50 in the test on KG-1 was 1 to 5 µM; in the test on THP-1, 1 to 5 µM; with NB-4-1 it was 1 to 5 µM; in the test with P12-ICHIKAWA it was 1 to 5 µM; in the test on SKM-1_1, under 1 µM; with ML-2, 1 to 5 µM.
Regarding `CN1CCCN(C(=O)c2cc3cc4ccccc4nc3n3ccnc23)CC1` [Compound 55], the IC50 with SK-BR-3 (setting [3]) and in the test with MBA-MB-231 (setting [4]) was over 10 µM throughout.
Take `COc1ccc2nc3c(cc(C(=O)N4CCCN(C)CC4)c4nccn43)cc2c1` [Compound 56]: the IC50 in the test with SK-BR-3 (setting [1]) and in the test with MBA-MB-231 (setting [2]) was over 10 µM each time.
On to `COc1ccc2nc3c(cc(C(=O)NCCN(C)C)c4nccn43)cc2c1` [Compound 57], for which the IC50 in the test on SK-BR-3 (setting [1]) and in the test with MBA-MB-231 (setting [2]) was 1 to 5 µM each time.
Turning to `CN1CCCN(C(=O)c2cc3cc4cc(Cl)ccc4nc3n3ccnc23)CC1` [Compound 60], the IC50 in the test on SK-BR-3 (setting [1]) and in the test with MBA-MB-231 (setting [2]) was over 10 µM in each case.
Regarding `CN(C)CCNC(=O)c1cc2cc3cc(Cl)ccc3nc2n2ccnc12` [Compound 61], the IC50 in the test on SK-BR-3 (setting [1]) and with MBA-MB-231 (setting [2]) was over 10 µM each time.
Regarding `O=C(NCCN1CCCC1)c1cc2cc3cc(Cl)ccc3nc2n2ccnc12` [Compound 62], the IC50 with SK-BR-3 (setting [1]) and with MBA-MB-231 (setting [2]) was over 10 µM throughout.
As for `C[C@@H]1CN(C(=O)c2cc3cc4cc(Cl)ccc4nc3n3ccnc23)C[C@H](C)N1` [Compound 63], the IC50 in the test with SK-BR-3 (setting [1]) and in the test with MBA-MB-231 (setting [2]) was over 10 µM throughout.
